{"source": "paper PMC3108470", "about": "(Journal of Medicinal Chemistry, 2011)", "key": {"guinea pig aortic strip": {"system": "guinea pig aortic strip", "assay": "Vasorelaxant activity, calcium-induced contraction of K+-depolarized", "details": "result in words"}, "guinea pig left atrium": {"system": "guinea pig left atrium", "details": "up to 10 μM; cited from earlier work"}, "ΔF508-CFTR": {"target": "ΔF508-CFTR (Homo sapiens, UniProt P13569, DEL508-508)", "assay": "ΔF508-CFTR potentiator assay, HS-YFP fluorescence quenching", "assay_type": "cell-based", "details": "FRT cells, forskolin 20 μM; Hill fit"}}}
{"compound": "O=c1c(-c2ccc(O)cc2)coc2cc(O)cc(O)c12", "note": "[genistein, reference compound]", "values": [{"measurement": "vascular effect in K+-depolarized (80 mM) vascular smooth muscle", "setting": "guinea pig aortic strip", "result": "inactive"}, {"measurement": "inotropic activity", "setting": "guinea pig left atrium", "result": "positive inotropic activity"}, {"measurement": "nH (Hill coefficient)", "setting": "ΔF508-CFTR", "result": 1.3}]}
